Consider 22 compounds from US20230391714A1, “INHIBITORS OF THE INTERACTION BETWEEN TRIP8B AND HCN CHANNELS AND USES THEREOF FOR TREATING NEUROLOGICAL DISEASES AND DISORDERS” (Northwestern University, priority 2022, published 2023).

Where two headings read alike, the source gives them in different places.

For this assay, the target named is TRIP8b-HCN1c40 (Homo sapiens (Human), UniProt Q8IYB4). The assay is described as follows: TRIP8b-HCN1c40 AlphaScreen assay. Format: binding. How it is done: AlphaScreen Assay. 20 nM ofGST-tagged HCNlc40 protein (corresponding to the C terminal 40 amino acids of HCN1) was incubated with 200 nM of His-tagged TRIP8b(241-602) and varying concentrations of the test compound as described in our prior report (Han et al., 2015). After a 3 h incubation, anti-GST AlphaScreen acceptor beads were added for 1.5 h followed by AlphaScreen nickel chelate donor beads for 1.5 h. AlphaScreen signal was quantified using a PerkinElmer (Waltham, MA) EnSpire multimode plate reader.

Where [1] appears, read: activity ranges, read-out: TRIP8b-HCN1c40 Alphascreen IC50 activity.
[2] abbreviates: read-out: TRIP8b-HCN1c40 Alphascreen IC50.

Sequence of TRIP8b-HCN1c40 (Q8IYB4 265-626): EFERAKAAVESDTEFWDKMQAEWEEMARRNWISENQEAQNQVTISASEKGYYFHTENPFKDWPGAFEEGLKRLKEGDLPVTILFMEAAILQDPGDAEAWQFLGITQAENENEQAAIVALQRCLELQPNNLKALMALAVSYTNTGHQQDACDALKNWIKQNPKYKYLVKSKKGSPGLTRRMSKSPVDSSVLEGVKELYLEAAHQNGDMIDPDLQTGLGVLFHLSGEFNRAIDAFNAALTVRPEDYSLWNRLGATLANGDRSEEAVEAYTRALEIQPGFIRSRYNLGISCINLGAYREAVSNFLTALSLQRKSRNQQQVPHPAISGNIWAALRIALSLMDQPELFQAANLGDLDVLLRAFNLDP

`Cc1ccc(-c2ccc(OCC(=O)NCc3ccc(Cl)cc3)c(CN3CCOCC3)c2)cc1` [NUCC-0201604]: the IC50 reads like this: under setting [1], 5000 to 10000 nM; under setting [2], 8100 nM.
For the compound `CN1CCN(Cc2cc(-c3c(Cl)cc(Cl)cc3Cl)ccc2OCC(=O)NCc2ccc(Cl)c(Cl)c2)CC1` [NUCC-0201969], the IC50 by setting is: under setting [1], 1000 to 2000 nM; under setting [2], 1100 nM.
As for `CN1CCN(Cc2cc(-c3ccc(Cl)c(Cl)c3)ccc2OCC(=O)NCCc2ccccc2)CC1` [NUCC-0201996], the IC50 is, setting by setting: under setting [1], 1000 to 2000 nM; under setting [2], 1100 nM.
For `CN1CCN(Cc2cc(-c3ccc(Cl)cc3)ccc2OCCNS(=O)(=O)c2ccc(Cl)cc2)CC1` [NUCC-0201974], the IC50 is 1000 to 2000 nM under setting [1] and 1800 nM under setting [2].
The matching figures for `Cc1cccc(-c2ccc(OCC(=O)Nc3ccc(O)cc3)c(CN3CC[C@H](N)C3)c2)c1` [NUCC-0201624]: 10000 to 20000 nM and 20000 nM.
The matching figures for `CN1CCN(Cc2cc(-c3ccc(Cl)c(Cl)c3)ccc2OCC(=O)NC2Cc3ccccc3C2)CC1` [NUCC-0201989]: 1000 to 2000 nM and 1300 nM.
On the same counts, the results for `Cc1cc(C)c(-c2ccc(OCC(=O)NCc3ccc(Cl)cc3)c(CN3CCNCC3)c2)c(C)c1` [NUCC-0201629] are 2000 to 5000 nM and 3100 nM.
Consider `C=Cc1ccccc1NC(=O)COc1ccc(-c2ccc(Cl)c(Cl)c2)cc1CN1CCN(C)CC1` [NUCC-0202015], for which the IC50 under setting [1] lay within 1000 to 2000 nM and the half-inhibitory concentration (IC50) under setting [2] turned out to be 1100 nM.
With `Cc1cccc(-c2ccc(OCC(=O)NCc3ccc(Cl)cc3)c(CN3CC[C@H](N)C3)c2)c1` [NUCC-0201625], the concentration for half-maximal inhibition (IC50) runs as follows: under setting [1], 5000 to 10000 nM; under setting [2], 6100 nM.
Turning to `Cc1ccc(-c2ccc(OC(C)C(=O)N[C@H](C)c3ccc(C)cc3)c(CN3CCN(C)CC3)c2)cc1` (some centres unmarked) [NUCC-0202048], the IC50 by setting is: under setting [1], 1000 to 2000 nM; under setting [2], 1900 nM.
Turning to `CN1CCN(Cc2cc(-c3ccc(Cl)c(Cl)c3)ccc2OCC(=O)NCc2ccc(C#N)cc2)CC1` [NUCC-0201984], under setting [2], the IC50 was 5300 nM.
On the same count and under the same terms, as for `CN1CCN(Cc2cc(-c3ccc(Cl)cc3)ccc2OCC(=O)NCc2ccc(Cl)cc2)CC1` [NUCC-0201972], the figure is 5000 nM.
With `CC(Oc1ccc(-c2ccc(Cl)cc2Cl)cc1CN1CCN(C)CC1)C(=O)NCc1ccc(Cl)cc1` (centres unmarked) [NUCC-0202026], the IC50 is less than 1000 nM under setting [1] and 910 nM under setting [2].
The matching figures for `CN1CCN(Cc2cc(-c3ccc(Cl)c(Cl)c3)ccc2OCCNS(=O)(=O)c2ccc(Cl)cc2)CC1` [NUCC-0201975]: 1000 to 2000 nM and 1700 nM.
For `CC(Oc1ccc(-c2ccc(F)cc2)cc1CN1CCN(C)CC1)C(=O)NCc1ccc(Cl)cc1` (centres unmarked) [NUCC-0202032], the IC50 by setting is: under setting [1], 2000 to 5000 nM; under setting [2], 3200 nM.
The matching figures for `CN1CCN(Cc2ccc(-c3ccc(C(F)(F)F)cc3)cc2OCC(=O)NCc2ccc(Cl)cc2)CC1` [NUCC-0202012]: 2000 to 5000 nM and 2100 nM.
With `CN1CCN(Cc2cc(-c3ccc(Cl)c(Cl)c3)ccc2OCC(=O)NCc2ccc(Cl)cc2)CC1` [NUCC-0201708], the IC50 under setting [2] was less than 740 nM.
Consider `CN1CCN(Cc2cc(-c3ccc(Cl)cc3Cl)ccc2OCC(=O)NCc2ccc(Cl)c(Cl)c2)CC1` [NUCC-0201978], for which the IC50 was less than 1000 nM under setting [1] and less than 740 nM under setting [2].
Take `CC(Oc1ccc(-c2ccc(Cl)c(Cl)c2)cc1CN1CCN(C)CC1)C(=O)NCc1ccc(Cl)cc1` (centres unmarked) [NUCC-0202027]: the IC50 is, setting by setting: under setting [1], less than 1000 nM; under setting [2], 940 nM.
As for `CN1CCN(Cc2ccc(-c3ccc(F)cc3)cc2OCC(=O)NCc2ccc(Cl)cc2)CC1` [NUCC-0202010], the IC50 was 5000 to 10000 nM under setting [1] and 5700 nM under setting [2].
The matching figures for `CN1CCN(Cc2cc(-c3ccc(Cl)c(Cl)c3)ccc2OCC(=O)Nc2ccc3ncsc3c2)CC1` [NUCC-0202014]: less than 1000 nM and 810 nM.
For the compound `CN1CCN(Cc2cc(-c3ccc(Cl)c(Cl)c3)ccc2OCC(=O)NC2Cc3ccc(Cl)cc3C2)CC1` (centres unmarked) [NUCC-0201992], the IC50 under setting [1] is less than 1000 nM and the IC50 under setting [2] is less than 740 nM.

The term IC50 denotes the concentration needed to halve the response being measured.
